Data: publication PMC11434850, “Biosynthesis of Piceatannol from Resveratrol in Grapevine Can Be Mediated by Cresolase-Dependent Ortho-Hydroxylation Activity of Polyphenol Oxidase” (Plants, 2024)

Test system: T1, polyphenol oxidase (PPO), cresolase activity; most likely isoform XP_010647098.3
T1 construct: pooled fractions A7 and A8; immunoreactive bands 40, 52 and faint 70 kDa; proteolytic processing possible
Assay: Michaelis-Menten / double reciprocal plot; piceatannol formation by LC-MS MRM
Format: biochemical, Vitis vinifera
Settings: o-hydroxylation (cresolase) to piceatannol; O2, 1 mM ascorbate, 0.1 M potassium phosphate pH 7.5, room temperature, 90 min, 5 to 200 µM substrate; partially purified, mixture of A7 and A8 fractions

Oc1ccc(/C=C/c2cc(O)cc(O)c2)cc1 [trans-resveratrol, 3,4′,5-trihydroxy-trans-stilbene]
Km: 118 ± 49.8 µM
